Here are results for 37 molecules from ChEMBL document CHEMBL1138945, “Development of N-4,6-pyrimidine-N-alkyl-N'-phenyl ureas as orally active inhibitors of lymphocyte specific tyrosine kinase” (Bioorg Med Chem Lett, 2006).

In brackets after ≈: the same amount, converted by molar mass.

The target of data set [1] is Tyrosine-protein kinase Lck (Homo sapiens, UniProt P06239). The data set is described as follows: Inhibition of Lck.
A further data set deals with Jurkat. The data set is described as follows: Inhibition of IL2 production in Jurkat E6-1 T cell line. The conditions noted are these: Homo sapiens. The format is functional, cell-based.
Data set [2] in a line: Aqueous solubility of the compound. The format is physicochemical. Particulars: buffer.
Data set [3] is described as follows: Oral bioavailability in rat. It is filed as ADME, organism-based. Particulars: in vivo.
Data set [4] is described as follows: Cmax in orally dosed rat. Further details: route oral. The conditions noted are these: in vivo, po. It is filed as ADME, organism-based.
Data set [5] can be described thus: Intrinsic clearance in rat hepatocytes after 1 hr at 1 uM. It is filed as ADME, cell-based, Liver, Hepatocyte.
The test system of another data set is Rattus norvegicus. In words: Inhibition of adjuvant-induced hind paw swelling in Lewis rat at 25 mg/kg, po after 7 days relative to control. The format is functional. The conditions noted are these: 168 h.

Chain of Tyrosine-protein kinase Lck (P06239 whole entry): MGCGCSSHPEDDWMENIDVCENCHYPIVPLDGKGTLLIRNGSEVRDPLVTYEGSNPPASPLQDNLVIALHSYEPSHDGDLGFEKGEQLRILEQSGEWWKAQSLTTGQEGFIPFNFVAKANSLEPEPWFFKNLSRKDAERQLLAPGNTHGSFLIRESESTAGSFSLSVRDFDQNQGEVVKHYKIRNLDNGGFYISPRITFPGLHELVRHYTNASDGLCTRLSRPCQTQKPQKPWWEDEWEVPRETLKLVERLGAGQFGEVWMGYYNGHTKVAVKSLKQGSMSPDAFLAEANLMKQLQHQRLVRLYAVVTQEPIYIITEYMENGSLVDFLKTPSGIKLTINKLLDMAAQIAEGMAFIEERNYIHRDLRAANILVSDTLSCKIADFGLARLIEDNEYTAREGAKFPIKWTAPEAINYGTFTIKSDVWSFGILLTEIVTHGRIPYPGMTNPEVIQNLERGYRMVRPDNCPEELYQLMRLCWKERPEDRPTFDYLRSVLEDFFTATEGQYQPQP

Regarding `Cc1ccc(O)cc1NC(=O)N(C)c1cc(Nc2ccc(N3CCOCC3)cc2)ncn1`, the IC50 (in general, the concentration needed to halve the response being measured) in data set [1] was 4 nM.

Consider `Cc1cccc(Cl)c1NC(=O)N(C)c1cc(Nc2ccc(N3CCN(C)CC3)cc2)ncn1`, for which the IC50 in data set [1] was determined as 9 nM; in the data set with Jurkat, 749 nM. Besides, the concentration in solution in data set [2] (solubility) was 2 µg/mL (≈ 4.29 µM).

In turn, `CCN(CC)CCOc1ccc(Nc2cc(N(C)C(=O)Nc3c(Cl)cccc3C(F)(F)F)ncn2)cc1` had an IC50 in data set [1] of 96 nM.

In turn, `CN(C(=O)Nc1ccccc1Cl)c1cc(Nc2ccc(N3CCOCC3)cc2)ncn1` displayed an IC50 in data set [1] of 4290 nM.

In the case of `CNc1cc(N(CCCN(C)C)C(=O)Nc2c(Cl)cccc2Cl)ncn1`, half-maximal inhibition in data set [1] (IC50) was put at 2350 nM.

`CCN(CC)CCOc1ccc(Nc2cc(N(C)C(=O)Nc3cc(NC(=O)c4cccc(C(F)(F)F)c4)ccc3C)ncn2)cc1`: the IC50 in data set [1] was 3 nM; with Jurkat, under 10 nM. Besides, the solubility (commonly how much of the substance goes into solution per volume) in data set [2] worked out at 3 µg/mL (≈ 4.72 µM).

Regarding `CCN(CC)CCOc1ccc(Nc2cc(N(C)C(=O)Nc3c(Cl)cccc3Cl)ncn2)cc1`, the IC50 came out at 87 nM in data set [1] and 862 nM in the data set with Jurkat. Moreover, the bioavailability (usually dose-corrected exposure relative to a reference, in per cent) in data set [3] came to 66%. For the same molecule, in data set [4], the concentration peaked (Cmax) at 394 ng/mL. The molecule also displayed a solubility in data set [2] of 38 µg/mL (≈ 75.5 µM). Besides, in data set [5], the CLint scaled (in general, the rate of metabolic loss divided by the concentration) at 1 µM was 40 mL/min/kg. Moreover, the inhibition in vivo (usually the percentage by which the read-out fell short of the control) at 25 mg/kg in the data set with Rattus norvegicus came to 63%.

For `CCN(CC)c1ccc(Nc2cc(N(C)C(=O)Nc3ccccc3Cl)ncn2)cc1`, the IC50 in data set [1] turned out to be 3130 nM.

Take `Cc1cccc(Cl)c1NC(=O)N(Cc1ccccc1)c1cc(Nc2ccc(F)cc2)ncn1`: inhibition in data set [1] was half-maximal at 1450 nM (IC50).

`CN(C(=O)Nc1ccccc1Cl)c1cc(Nc2ccc(F)cc2)ncn1` gave an IC50 in data set [1] of 1820 nM.

On to `Cc1cccc(Cl)c1NC(=O)N(C)c1cc(Nc2ccc(N3CCOCC3)cc2)ncn1`, for which the IC50 in data set [1] is 190 nM.

Molecule `CN(C(=O)Nc1c(Cl)cccc1Cl)c1cc(NC2CCOCC2)ncn1` showed an IC50 in data set [1] of over 10000 nM.

Regarding `CN(C(=O)Nc1c(Cl)cccc1Cl)c1cc(Nc2ccc(N3CCOCC3)cc2)ncn1`, the IC50 in data set [1] was found to be 301 nM; in the data set on Jurkat, 2900 nM. The same molecule came in with a bioavailability in data set [3] of 0%. Further, the highest level in data set [4] (Cmax) was 9 ng/mL. In data set [2], this molecule had a solubility of 3 µg/mL (≈ 6.34 µM). For the same molecule, the CLint scaled at 1 µM in data set [5] came out at 48 mL/min/kg.

In data set [1], `CN(C(=O)Nc1c(Cl)cccc1Cl)c1cc(NCCN2CCOCC2)ncn1` showed an IC50 of over 10000 nM.

In turn, `CCN(CC)CCOc1ccc(Nc2cc(N(C)C(=O)Nc3cc(C(=O)Nc4cccc(C(F)(F)F)c4)ccc3C)ncn2)cc1` had an IC50 in data set [1] of 32 nM.

Regarding `O=C(Nc1c(Cl)cccc1Cl)N(c1ccncc1)c1cc(Nc2ccc(N3CCOCC3)cc2)ncn1`, the IC50 in data set [1] was over 10000 nM.

`CN1CCN(c2ccc(Nc3cc(N(C)C(=O)Nc4c(Cl)cccc4Cl)ncn3)cc2)CC1` yielded an IC50 in data set [1] of 6 nM.

As for `CN1CCN(N(C(=O)Nc2c(Cl)cccc2Cl)c2cc(Nc3ccc(N4CCOCC4)cc3)ncn2)CC1`, the IC50 in data set [1] stood at 230 nM.

On to `CCN(CC)CCOc1ccc(Nc2cc(N(C)C(=O)Nc3c(F)cccc3F)ncn2)cc1`, for which inhibition in data set [1] was half-maximal at 418 nM (IC50).

Consider `CN(C)CCCN(C(=O)Nc1c(Cl)cccc1Cl)c1cc(Nc2ccc(N3CCOCC3)cc2)ncn1`, for which the IC50 in data set [1] was found to be 155 nM.

The molecule `CCN(CC)CCNc1cc(N(C)C(=O)Nc2c(Cl)cccc2Cl)ncn1` had an IC50 in data set [1] of over 10000 nM.

Consider `CCN(CC)CCOc1ccc(Nc2cc(N(C)C(=O)Nc3cc(C(=O)Nc4cc(C(C)(C)C)on4)ccc3C)ncn2)cc1`, for which the IC50 in data set [1] is 4 nM; in the data set on Jurkat, under 10 nM. Besides, the solubility in data set [2] worked out at 1 µg/mL (≈ 1.63 µM).

As to `CCN(CC)CCOc1ccc(Nc2cc(N(CCCN(C)C)C(=O)Nc3c(Cl)cccc3Cl)ncn2)cc1`, the IC50 in data set [1] came out at 229 nM.

With `CN(C(=O)Nc1c(Cl)cccc1Cl)c1cc(Nc2ccc(F)cc2)ncn1`, 3860 nM corresponded to half-maximal inhibition in data set [1] (IC50).

With `CCN(CC)CCOc1ccc(N(C(=O)Nc2c(Cl)cccc2Cl)c2cc(NC)ncn2)cc1`, in data set [1], the IC50 was over 10000 nM.

Molecule `CCN(CC)c1ccc(Nc2cc(N(CCCN(C)C)C(=O)Nc3ccccc3Cl)ncn2)cc1` had an IC50 in data set [1] of 4490 nM.

Consider `CCN(CC)CCOc1ccc(Nc2cc(N(C)C(=O)Nc3cc(OC)ccc3C)ncn2)cc1`, for which the IC50 in data set [1] worked out at 2580 nM.

In turn, `CCN(CC)CCOc1ccc(Nc2cc(N(C)C(=O)Nc3cc(NC(=O)c4cc5ccccc5s4)ccc3C)ncn2)cc1` registered an IC50 in data set [1] of 52 nM.

Turning to `CN(C)CCCNc1cc(N(C)C(=O)Nc2c(Cl)cccc2Cl)ncn1`, the IC50 in data set [1] was found to be 5990 nM.

As to `CCN(CC)c1ccc(Nc2cc(N(CCCN(C)C)C(=O)Nc3c(C)cccc3Cl)ncn2)cc1`, the midpoint of inhibition in data set [1], the IC50, lay at 971 nM.

The molecule `CN1CCN(c2ccc(Nc3cc(N(C)C(=O)Nc4ccccc4Cl)ncn3)cc2)CC1` showed a concentration for half-maximal inhibition (IC50) in data set [1] of 708 nM.

`CCN(CC)CCOc1ccc(Nc2cc(N(C)C(=O)Nc3ccccc3OC)ncn2)cc1` gave an IC50 in data set [1] of over 10000 nM.

In data set [1], `CCN(CC)c1ccc(Nc2cc(N(Cc3ccccc3)C(=O)Nc3ccccc3Cl)ncn2)cc1` came in with an IC50 of over 10000 nM.

As for `CCN(CC)c1ccc(Nc2cc(N(Cc3ccc(N(C)C)cc3)C(=O)Nc3ccccc3Cl)ncn2)cc1`, the IC50 in data set [1] was over 10000 nM.

In turn, `CCN(CC)CCOc1ccc(Nc2cc(N(C)C(=O)Nc3cc(NC(=O)c4cc5ccccc5n4C)ccc3C)ncn2)cc1` came in with an IC50 in data set [1] of 149 nM.

For `CCN(CC)CCOc1ccc(Nc2cc(N(C)C(=O)Nc3cc(O)ccc3C)ncn2)cc1`, the IC50 in data set [1] was determined as 3 nM; with Jurkat it was 64 nM. The bioavailability in data set [3] was determined as 1%. In addition, the highest level in data set [4] (Cmax) was 3 ng/mL. The molecule further showed a solubility in data set [2] of 41 µg/mL (≈ 88.3 µM). Further, the CLint scaled at 1 µM in data set [5] was found to be 108 mL/min/kg.

Regarding `CCN(CC)CCOc1ccc(Nc2cc(N(C)C(=O)Nc3c(C)cccc3Cl)ncn2)cc1`, the IC50 in data set [1] was determined as 28 nM; in the data set with Jurkat it was 3100 nM. Moreover, the concentration in solution in data set [2] (solubility) was 34 µg/mL (≈ 70.4 µM). Also, in data set [5], the CLint scaled at 1 µM is 25 mL/min/kg.
